Laboratory results: the supplement of paper PMC10307832

Experiments:
Assay in all cases: relative viability (nuclei count vs DMSO), 5 days (fraction); higher = more cells survive
Decitabine + Olaparib = compound: Nc1ncn([C@H]2C[C@H](O)[C@@H](CO)O2)c(=O)n1 [Decitabine] + O=C(c1cc(Cc2n[nH]c(=O)c3ccccc23)ccc1F)N1CCN(C(=O)C2CC2)CC1 [Olaparib] (partner 8 µM)
How it was run: (§1)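 Lung cancer cell lines in 1536-well plates got either a single drug or a fixed anchor-drug dose together with five library-drug doses (not always all listed) in √10 steps, by pin tool, on the day after seeding. Nuclei were counted after 5 days, and relative viability is the treated-to-vehicle ratio of nuclei counts. Values are medians of duplicate plates.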

Cediranib + Pictilisib = compound: COc1cc2c(Oc3ccc4[nH]c(C)cc4c3F)ncnc2cc1OCCCN1CCCC1 [Cediranib] + CS(=O)(=O)N1CCN(Cc2cc3nc(-c4cccc5[nH]ncc45)nc(N4CCOCC4)c3s2)CC1 [Pictilisib] (partner 1 µM)
How it was run: as §1

Cediranib + OSI-027 = compound: COc1cc2c(Oc3ccc4[nH]c(C)cc4c3F)ncnc2cc1OCCCN1CCCC1 [Cediranib] + COc1cccc2cc(-c3nc([C@H]4CC[C@H](C(=O)O)CC4)n4ncnc(N)c34)[nH]c12 [OSI-027] (partner 0.5 µM)
How it was run: as §1

Decitabine + Alpelisib = compound: Nc1ncn([C@H]2C[C@H](O)[C@@H](CO)O2)c(=O)n1 [Decitabine] + Cc1nc(NC(=O)N2CCC[C@H]2C(N)=O)sc1-c1ccnc(C(C)(C)C(F)(F)F)c1 [Alpelisib] (partner 2 µM)
How it was run: as §1

Cell Line	relative viability (Decitabine + Olaparib; first compound 0.04 µM)	relative viability (Decitabine + Olaparib; first compound 0.1265 µM)	relative viability (Decitabine + Olaparib; first compound 0.4 µM)	relative viability (Decitabine + Olaparib; first compound 1.265 µM)	relative viability (Decitabine + Olaparib; first compound 4 µM)	relative viability (Cediranib + Pictilisib; first compound 0.04 µM)	relative viability (Cediranib + Pictilisib; first compound 0.1265 µM)	relative viability (Cediranib + Pictilisib; first compound 0.4 µM)	relative viability (Cediranib + Pictilisib; first compound 1.265 µM)	relative viability (Cediranib + Pictilisib; first compound 4 µM)	relative viability (Cediranib + OSI-027; first compound 0.04 µM)	relative viability (Cediranib + OSI-027; first compound 0.1265 µM)	relative viability (Cediranib + OSI-027; first compound 0.4 µM)	relative viability (Cediranib + OSI-027; first compound 1.265 µM)	relative viability (Cediranib + OSI-027; first compound 4 µM)	relative viability (Decitabine + Alpelisib; first compound 0.04 µM)	relative viability (Decitabine + Alpelisib; first compound 0.1265 µM)	relative viability (Decitabine + Alpelisib; first compound 0.4 µM)	relative viability (Decitabine + Alpelisib; first compound 1.265 µM)	relative viability (Decitabine + Alpelisib; first compound 4 µM)
HCC-78	0.458	0.433	0.382	0.272	0.241	0.24	0.204	0.21	0.174	0.187	0.356	0.448	0.376	0.311	0.356	0.324	0.293	0.285	0.204	0.247
HCC-366	0.11	0.0915	0.066	0.0346	0.0247	0.138	0.148	0.127	0.0996	0.17	0.933	0.877	0.841	0.84	1.07	0.455	0.597	0.31	0.133	0.0897
HCC-827	0.146	0.279	0.218	0.182	0.205	1.1		0.955	0.944	0.97	0.751		0.737	0.74	0.671		0.426	0.356	0.279	0.311
HOP-62	0.108	0.141	0.0882	0.0978	0.132	0.813		0.578	0.413	1.16	0.78	0.813	0.771	0.677	0.791	0.652	0.323	0.152	0.124	0.125
IA-LM	0.288	0.197	0.139	0.129	0.129	0.369	0.577	0.315	0.406	0.361						0.464	0.406	0.297	0.207	0.152
LC-2-ad	0.441	0.402	0.397	0.343	0.274	0.655	0.567	0.411	0.395	0.201	0.874	0.731	0.821	0.762	0.835	0.726	0.742	0.681	0.378	0.304
LCLC-97TM1	0.0932	0.124	0.0895	0.0603	0.335	0.174		0.168	0.122	0.248	0.605	0.332	0.518	0.508	0.566	0.172	0.151	0.14	0.129	0.112
LCLC-103H	0.688	0.69	0.498	0.491	0.742	0.63	0.754	0.619	0.654	0.56	0.469	0.501	0.474	0.467	0.504	0.888	0.958	0.487	0.858	0.64
LK-2	0.497	0.38	0.297	0.211	0.24	0.607	0.524	0.573	0.591	0.319	0.181	0.192	0.22	0.175	0.201		0.986	0.73	0.553	0.504
